Source: ChEMBL document CHEMBL5236548, “Marine Natural Products: A Potential Source of Anti-hepatocellular Carcinoma Drugs” (J Med Chem, 2021)

Assays:
[1] = test system: HepG2; assay: Antiproliferative activity against doxorubicin sensitive human HepG2 cells assessed as decrease in cell proliferation at 50 uM incubated for 24 hrs by MTT assay relative to control; assay type: functional; set-up: scale not given: the % may be the effect or the level left
[2] = test system: HepG2; assay: Antiproliferative activity against doxorubicin resistant human HepG2 cells at 50 uM incubated for 24 hrs by MTT assay relative to control; assay type: functional
[3] = test system: Bel-7402; assay: Growth inhibition of human Bel-7402 cells; assay type: functional, cell-based
[4] = test system: Bel-7402; assay: Cytotoxicity against human 7402 hepatoma cells incubated for 24 hrs by MTT assay; assay type: functional, cell-based; settings: Bel-7402, 24 h
[5] = test system: MDA-MB-435; assay: Cytotoxicity against human MDA-MB-435 cells incubated for 24 hrs by MTT assay; assay type: functional, cell-based; settings: MDA-MB-435, 24 h
[6] = test system: HepG2; assay: Cytotoxicity against human HepG2 cells incubated for 48 hrs by MTT assay; assay type: functional, cell-based; settings: HepG2, 48 h
[7] = test system: HepG2; assay: Anticancer activity against human HepG2 cells by SRB assay; assay type: functional, cell-based
[8] = test system: SK-HEP1; assay: Antiproliferative activity against human SK-HEP1 cells assessed as cell growth inhibition by SRB method; assay type: functional
[9] = test system: HepG2; assay: Antiproliferative activity against human HepG2 cells incubated for 72 hrs by MTT assay; assay type: functional, cell-based; settings: HepG2, 72 h
[10] = test system: HepG2; assay: Antiproliferative activity against human HepG2 cells assessed as cell growth inhibition by SRB method; assay type: functional
[11] = test system: SMMC-7721; assay: Cytotoxicity against human SMMC-7721 cells incubated for 72 hrs by SRB assay; assay type: functional, cell-based; settings: SMMC-7721, 72 h
[12] = test system: Bel-7402; assay: Cytotoxicity against human Bel-7402 cells incubated for 72 hrs by SRB assay; assay type: functional, cell-based; settings: Bel-7402, 72 h
[13] = Half life in Kunming mouse at 15 to 30 mg/kg measured upto 240 mins; assay type: ADME, organism-based; settings: in vivo, dose 15-30 mg/kg
[14] = test system: H22; assay: Antitumor activity against […] cells xenografted in mouse assessed as reduction in tumor volume at 15 mg/kg, ip measured after 21 days by caliper method relative to control; assay type: functional; set-up: scale not given: the % may be the effect or the level left; settings: time 21 day
[15] = test system: H22; assay: Antitumor activity against […] cells xenografted in mouse assessed as reduction in tumor volume at 45 mg/kg, ip measured after 21 days by caliper method relative to control; assay type: functional; set-up: scale not given: the % may be the effect or the level left; settings: time 21 day
[16] = test system: Bel-7402; assay: Antitumor activity against human Bel-7402 cells xenografted in mouse assessed as reduction in tumor volume at 14 mg/kg, ip administered daily for 21 days by caliper method relative to control; assay type: functional; set-up: scale not given: the % may be the effect or the level left; settings: time 21 day
[17] = test system: Bel-7402; assay: Antitumor activity against human Bel-7402 cells xenografted in mouse assessed as reduction in tumor volume at 28 mg/kg, ip administered daily for 21 days by caliper method relative to control; assay type: functional; set-up: scale not given: the % may be the effect or the level left; settings: time 21 day
[18] = test system: Bel-7402; assay: Antitumor activity against human Bel-7402 cells xenografted in mouse assessed as reduction in tumor volume at 7 mg/kg, ip administered daily for 21 days by caliper method relative to control; assay type: functional; set-up: scale not given: the % may be the effect or the level left; settings: time 21 day
[19] = test system: H22; assay: Antitumor activity against […] cells xenografted in mouse assessed as reduction in tumor volume at 5 mg/kg, ip measured after 21 days by caliper method relative to control; assay type: functional; set-up: scale not given: the % may be the effect or the level left; settings: time 21 day
[20] = test system: Bel-7402; assay: Antitumor activity against human Bel-7402 cells xenografted in mouse assessed as reduction in tumor volume at 2 mg/kg, ip administered daily for 21 days by caliper method relative to control; assay type: functional; set-up: scale not given: the % may be the effect or the level left; settings: time 21 day
[21] = test system: H22; assay: Antitumor activity against […] cells xenografted in mouse assessed as reduction in tumor volume at 2 mg/kg, ip administered daily for 21 days by caliper method relative to control; assay type: functional; set-up: scale not given: the % may be the effect or the level left; settings: time 21 day
[22] = test system: SMMC-7721; assay: Antiproliferative activity against human SMMC-7721 cells measured after 48 hrs; assay type: functional, cell-based; settings: SMMC-7721, 48 h
[23] = test system: SMMC-7721; assay: Antitumor activity against human SMMC-7721 cells xenografted in mouse assessed as reduction in tumor volume at 20 mg/kg administered once every two days for 21 days relative to control; assay type: functional; set-up: scale not given: the % may be the effect or the level left; settings: time 21 day
[24] = test system: HepG2; assay: Antiproliferative activity against human HepG2 cells incubated for 72 hrs; assay type: functional, cell-based; settings: HepG2, 72 h
[25] = test system: HepG2; assay: Anticancer activity against human HepG2 cells by MTT assay; assay type: functional, cell-based
[26] = test system: Hep 3B2; assay: Cytotoxicity against human Hep3B cells by MTT assay; assay type: functional, cell-based
[27] = test system: HA22T cell line; assay: Cytotoxicity against human HA22T cells by MTT assay; assay type: functional, cell-based
[28] = test system: HepG2; assay: Cytotoxicity against human HepG2 cells by MTT assay; assay type: functional, cell-based
[29] = test system: HepG2; assay: Cytotoxicity against human HepG2 cells measured after 3 days by MTT assay; assay type: functional, cell-based; settings: HepG2, 72 h
[30] = Cytotoxicity against human HepG3 cells measured after 3 days by MTT assay; assay type: functional, cell-based; settings: HepG3, 72 h

## C/C=C1/C(=C\c2[nH]c(/C=C3N=C(/C=C4/NC(=O)C(CC)=C4C)C(C)=C/3CCC(=O)O)c(CCC(=O)O)c2C)NC(=O)C1C (stereo not given)
[1]
  Activity: 40%
[2]
  Activity: 50%

## Oc1cc(Br)c(Cc2cc(O)c(O)cc2Br)cc1O
[3]
  IC50: 15.9 µM

## COC(=O)N[C@H]1[C@@H](C)O[C@@H](O[C@H]2C/C=C(\C)[C@@H]3C=C[C@@H]4[C@@H](O[C@H]5C[C@@H](O[C@H]6C[C@@H](O)[C@@H](O[C@@H]7C[C@@H](O)[C@@H](OC)[C@H](C)O7)[C@H](C)O6)[C@@H](O)[C@H](C)O5)[C@H](C)C[C@H](C)[C@H]4[C@]3(C)/C(O)=C3\C(=O)O[C@]4(C[C@@H](C)C(CO)=C[C@H]4/C=C/2C)C3=O)C[C@]1(C)[N+](=O)[O-]
[4]
  IC50: 0.506 µM
[5]
  IC50: 52.1 µM

## COC1=CC(=O)c2c(O)c3c(c(O)c2C1=O)C[C@]1(C)OCO[C@@H]1C3
[6]
  IC50: 12.8 µM

## CC1=CC[C@@H]2[C@@H](CC[C@@]2(C)O)C(C)(C)[C@H]1CC[C@@H]1[C@@]2(C)CC[C@@H](O)C(C)(C)O[C@@H]2CC[C@]1(C)O
[7]
  IC50: 17.2 µM

## CC[C@]1(O)C[C@@H]2CN(CCc3c([nH]c4ccccc34)[C@@](C(=O)OC)(c3cc4c(cc3OC)N(C)[C@H]3[C@@](O)(C(=O)OC)[C@H](OC(C)=O)[C@]5(CC)C=CCN6CC[C@]43[C@@H]65)C2)C1 [VINBLASTINE]
[8]
  GI50: 0.0378 µM

## CC(=O)O[C@H]1CC[C@]2(C)C3CC[C@@]4(C)C(CCC4[C@H](C)CCCC(C)C)C3[C@@H](c3nc4ccccc4[nH]3)[C@]2(O)C1 (stereo not given in full)
[9]
  IC50: 4.2 µM

## COC1=CC[C@@H]([C@@H](C)/C=C(C)/C=C\C=C/C(=O)N[C@H](C(=O)N/C=C\C[C@H](C/C=C(\C)Cl)OC(N)=O)C(C)(C)C)OC1=O
[10]
  GI50: 0.000752 µM
[8]
  GI50: 0.000278 µM

## Cc1cc(O)cc(O)c1OC1C(=O)Oc2c(C)cc(O)c3c2C1c1cc(O)cc(O)c1C3=O (stereo not given)
[11]
  IC50: < 4 µM
[12]
  IC50: < 6 µM
[13]
  half-life: 0.667 h
[14]
  Activity: 62%
[15]
  Activity: 66%
[16]
  Activity: 51.2%
[17]
  Activity: 59.9%
[18]
  Activity: 48.8%
[19]
  Activity: 55%

## COc1cccc2c1C(=O)c1c(O)c3c(c(O)c1C2=O)C[C@@](O)(C(=O)CO)C[C@@H]3O[C@H]1C[C@H](N)[C@H](O)[C@H](C)O1.Cl [DOXORUBICIN HYDROCHLORIDE]
[13]
  half-life: 23 h
[20]
  Activity: 73.5%
[21]
  Activity: 51.9%

## C[C@@]12C[C@@H](O)C[C@]3(C)C4=CC(=O)OCC4=C[C@@H](OC1=O)C23 (stereo not given in full)
[22]
  IC50: 19 µM
[23]
  Activity: 86.4%

## CCCCSC1=C(SCCCC)C(=O)c2c(O)c3c(c(O)c2C1=O)C[C@@H](O)[C@@](C)(O)C3
[6]
  IC50: 5.04 µM

## CCC(C)SC1=C(SC)C(=O)c2c(O)c3c(c(O)c2C1=O)C[C@](C)(O)[C@H](O)C3 (stereo not given in full)
[6]
  IC50: 2.39 µM

## CC[C@H]1C=CCC[C@@]2(C[C@@H]3CCC4[C@H](C(=O)OCCCCCCCCCCCCCCCC(=O)N(CCCN)C[C@@H](O)CCN)[C@]5(CCC[C@@H](C)O5)NC(=N2)N43)O1 (stereo not given in full)
[24]
  IC50: 2.66 µM

## CO[C@@]12[C@H](COC(N)=O)C3=C(C(=O)C(C)=C(N)C3=O)N1C[C@@H]1N[C@@H]12 [MITOMYCIN]
[25]
  IC50: 0.13 µM

## CCCCC/C=C\CC1(O)C=C(Br)C(=O)/C1=C\C=C\CCCC(=O)OC (stereo not given)
[26]
  IC50: 0.47 µM
[27]
  IC50: 0.41 µM
[28]
  IC50: 0.59 µM

## C=C(CC[C@@H](C)[C@H]1[C@@H](O)C[C@H]2[C@@H]3CC=C4C[C@@H](O[C@@H]5O[C@@H](C)[C@@H](OC(C)=O)[C@@H](O)[C@@H]5O)CC[C@]4(C)[C@H]3[C@H](O)C[C@]12C)C(C)C
[29]
  IC50: 17.6 µM
[30]
  IC50: 18.9 µM

## C[C@]1(O)Cc2c(O)c3c(c(O)c2C[C@H]1O)C(=O)C=C(NCc1ccc(F)cc1)C3=O
[6]
  IC50: 11.2 µM
